Source: publication PMC4029082, “Functional characterisation of a nicotinic acetylcholine receptor α subunit from the brown dog tick, Rhipicephalus sanguineus^” (International Journal for Parasitology, 2014)

Molecular target: T1, Rsanα1 nicotinic acetylcholine receptor α subunit (Rhipicephalus sanguineus, UniProt V9Z9T0)
T1 construct: full-length Rsanα1 (GenBank KF695387) expressed in Xenopus laevis oocytes; with chicken β2 nAChR subunit
Experiment: two-electrode voltage clamp in Xenopus oocytes, concentration-response curve (agonist)
Type: cell-based

T1 sequence (V9Z9T0 45-525): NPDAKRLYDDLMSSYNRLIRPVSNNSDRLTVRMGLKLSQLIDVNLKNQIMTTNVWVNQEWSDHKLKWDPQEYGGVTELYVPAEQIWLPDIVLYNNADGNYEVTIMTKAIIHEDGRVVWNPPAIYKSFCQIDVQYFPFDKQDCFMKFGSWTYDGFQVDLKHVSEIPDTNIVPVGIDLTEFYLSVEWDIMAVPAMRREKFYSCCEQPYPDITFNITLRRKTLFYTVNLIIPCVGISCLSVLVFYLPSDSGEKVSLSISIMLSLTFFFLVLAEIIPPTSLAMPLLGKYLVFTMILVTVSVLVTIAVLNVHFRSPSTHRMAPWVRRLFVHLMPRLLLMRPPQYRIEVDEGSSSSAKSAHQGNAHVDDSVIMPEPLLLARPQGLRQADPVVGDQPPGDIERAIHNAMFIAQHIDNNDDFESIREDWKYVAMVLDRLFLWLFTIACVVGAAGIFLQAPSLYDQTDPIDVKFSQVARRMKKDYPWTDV
T1 sequence (P09484 19-491 partner): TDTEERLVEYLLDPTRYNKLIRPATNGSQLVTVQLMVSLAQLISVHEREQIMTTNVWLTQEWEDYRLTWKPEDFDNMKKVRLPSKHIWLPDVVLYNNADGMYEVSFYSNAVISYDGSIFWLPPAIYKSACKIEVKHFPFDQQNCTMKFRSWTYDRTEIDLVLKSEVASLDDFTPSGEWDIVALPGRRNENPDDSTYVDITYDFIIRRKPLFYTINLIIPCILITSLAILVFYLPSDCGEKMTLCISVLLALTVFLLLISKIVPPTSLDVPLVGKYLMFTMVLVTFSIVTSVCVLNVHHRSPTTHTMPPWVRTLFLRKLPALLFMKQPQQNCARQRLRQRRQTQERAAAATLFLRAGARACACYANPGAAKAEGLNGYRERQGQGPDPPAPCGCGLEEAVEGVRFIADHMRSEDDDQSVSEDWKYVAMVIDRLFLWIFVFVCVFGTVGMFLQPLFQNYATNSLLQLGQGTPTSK

SMILES: CC(=O)OCC[N+](C)(C)C [acetylcholine]
- EC50: 10.7 µM
